Measured values reported in the supplement of paper PMC11061612.

Key:
Assay in all cases: combination Emax (second highest fraction inhibited in the dose matrix, 72 h); higher = more inhibition; extreme values may be limits of the assay
[1] = tested on: SCC-4 (Oral Cavity Carcinoma)
In short: (§1)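 After 24 hours at 37°C and 5% CO2 in 1536-well plates, cells in DMEM/F12 or RPMI plus 10% FBS received two-drug dose matrices for 72 hours. Viability came from CellTiter-Glo 2.0 luminescence and was scaled as inhibition, anchored at 0 by vehicle wells and at 1 by blank wells. Combination Emax is taken as the second-highest inhibition in the matrix, and Bliss excess as the observed combination effect less EA + EB − EA·EB, with EA and EB the single-agent effects.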

[2] = tested on: SNU-423 (Hepatocellular Carcinoma)
In short: as §1

[3] = tested on: SK-CO-1 (Colorectal Carcinoma)
In short: as §1

[4] = tested on: KP-4 (Pancreatic Carcinoma)
In short: as §1

[5] = tested on: NCI-H3118 (Head and Neck Carcinoma)
In short: as §1

[6] = tested on: T47D (Breast Carcinoma)
In short: as §1

[7] = tested on: Raji (Burkitt's Lymphoma)
In short: as §1

[8] = tested on: GAK (Melanoma)
In short: as §1

[9] = tested on: PL4 (Pancreatic Carcinoma)
In short: as §1

[10] = tested on: T84 (Colorectal Carcinoma)
In short: as §1

[11] = tested on: NAMALWA (Burkitt's Lymphoma)
In short: as §1

[12] = tested on: NCI-H596 (Other Solid Carcinomas)
In short: as §1

[13] = tested on: LCLC-103H (Non-Small Cell Lung Carcinoma)
In short: as §1

[14] = tested on: MM1S (Plasma Cell Myeloma)
In short: as §1

[15] = tested on: NCI-H2373 (Mesothelioma)
In short: as §1

[16] = tested on: RCC-JW (Kidney Carcinoma)
In short: as §1

[17] = tested on: SiHa (Cervical Carcinoma)
In short: as §1

[18] = tested on: MS-1 (Small Cell Lung Carcinoma)
In short: as §1

[19] = tested on: NB1 (Neuroblastoma)
In short: as §1

[20] = tested on: AM-38 (Glioblastoma)
In short: as §1

SMILES: CC1(C)CCC(CN2CCN(c3ccc(C(=O)NS(=O)(=O)c4ccc(NCC5CCOCC5)c([N+](=O)[O-])c4)c(Oc4cnc5[nH]ccc5c4)c3)CC2)=C(c2ccc(Cl)cc2)C1 [Venetoclax] + CN(C)CCCOc1ccc(-c2ccc3ncc4c(c3c2)n(C2CCOCC2)c(=O)n4C)cn1 [AZD0156] (first compound max 1 µM, 7x7, partner max 1 µM)
- combination Emax [1]: 0.358
- combination Emax [2]: 0.271
- combination Emax [3]: 0.271
- combination Emax [4]: 0.21
- combination Emax [5]: 0.181
- combination Emax [6]: 0.344
- combination Emax [7]: 0.244
- combination Emax [8]: 0.293
- combination Emax [9]: 0.248
- combination Emax [10]: 0.19
- combination Emax [11]: 0.613
- combination Emax [12]: 0.232
- combination Emax [13]: 0.285
- combination Emax [14]: 0.221
- combination Emax [15]: 0.269
- combination Emax [16]: 0.184
- combination Emax [17]: 0.152
- combination Emax [18]: 0.445
- combination Emax [19]: 0.145
- combination Emax [20]: 0.209

SMILES: CC1(C)CCC(CN2CCN(c3ccc(C(=O)NS(=O)(=O)c4ccc(NCC5CCOCC5)c([N+](=O)[O-])c4)c(Oc4cnc5[nH]ccc5c4)c3)CC2)=C(c2ccc(Cl)cc2)C1 [Venetoclax] + COc1cc(Nc2ncc3c(n2)-c2ccc(Cl)cc2C(c2c(F)cccc2OC)=NC3)ccc1C(=O)O [Alisertib] (first compound max 1 µM, 7x7, partner max 10 µM)
- combination Emax [1]: 0.571
- combination Emax [2]: 0.361
- combination Emax [3]: 0.629
- combination Emax [4]: 0.44
- combination Emax [5]: 0.312
- combination Emax [6]: 0.326
- combination Emax [7]: 0.252
- combination Emax [8]: 0.147
- combination Emax [9]: 0.448
- combination Emax [10]: 0.315
- combination Emax [11]: 0.661
- combination Emax [12]: 0.381
- combination Emax [13]: 0.539
- combination Emax [14]: 0.423
- combination Emax [15]: 0.253
- combination Emax [16]: 0.286
- combination Emax [17]: 0.212
- combination Emax [18]: 0.392
- combination Emax [19]: 0.561
- combination Emax [20]: 0.41

SMILES: CC1(C)CCC(CN2CCN(c3ccc(C(=O)NS(=O)(=O)c4ccc(NCC5CCOCC5)c([N+](=O)[O-])c4)c(Oc4cnc5[nH]ccc5c4)c3)CC2)=C(c2ccc(Cl)cc2)C1 [Venetoclax] + C[C@@H]1COCCN1C2=NC(=NC(=C2)C3(CC3)[S@](=N)(=O)C)C4=C5C=CNC5=NC=C4 [AZD6738] (first compound max 1 µM, 7x7, partner max 10 µM)
- combination Emax [1]: 0.585
- combination Emax [2]: 0.441
- combination Emax [3]: 0.55
- combination Emax [4]: 0.418
- combination Emax [5]: 0.568
- combination Emax [6]: 0.35
- combination Emax [7]: 0.733
- combination Emax [8]: 0.528
- combination Emax [9]: 0.709
- combination Emax [10]: 0.702
- combination Emax [11]: 0.889
- combination Emax [12]: 0.371
- combination Emax [13]: 0.55
- combination Emax [14]: 0.527
- combination Emax [15]: 0.591
- combination Emax [16]: 0.469
- combination Emax [17]: 0.286
- combination Emax [18]: 0.702
- combination Emax [19]: 0.789
- combination Emax [20]: 0.732

SMILES: CC1(C)CCC(CN2CCN(c3ccc(C(=O)NS(=O)(=O)c4ccc(NCC5CCOCC5)c([N+](=O)[O-])c4)c(Oc4cnc5[nH]ccc5c4)c3)CC2)=C(c2ccc(Cl)cc2)C1 [Venetoclax] + C[C@@H](Nc1cc(F)cc(F)c1)c1cc(C(=O)N(C)C)cc2c(=O)cc(N3CCOCC3)oc12 [AZD8186] (first compound max 1 µM, 7x7, partner max 3 µM)
- combination Emax [1]: 0.614
- combination Emax [2]: 0.383
- combination Emax [3]: 0.187
- combination Emax [4]: 0.421
- combination Emax [5]: 0.0963
- combination Emax [6]: 0.272
- combination Emax [7]: 0.172
- combination Emax [8]: 0.242
- combination Emax [9]: 0.243
- combination Emax [10]: 0.101
- combination Emax [11]: 0.428
- combination Emax [12]: 0.241
- combination Emax [13]: 0.253
- combination Emax [14]: 0.288
- combination Emax [15]: 0.216
- combination Emax [16]: 0.293
- combination Emax [17]: 0.243
- combination Emax [18]: 0.32
- combination Emax [19]: 0.145
- combination Emax [20]: 0.157

SMILES: CC1(C)CCC(CN2CCN(c3ccc(C(=O)NS(=O)(=O)c4ccc(NCC5CCOCC5)c([N+](=O)[O-])c4)c(Oc4cnc5[nH]ccc5c4)c3)CC2)=C(c2ccc(Cl)cc2)C1 [Venetoclax] + Cc1cc2ncnn2cc1Nc1ncc2c(n1)n(C1CCOCC1)c(=O)n2C [AZD7648] (first compound max 1 µM, 7x7, partner max 10 µM)
- combination Emax [1]: 0.235
- combination Emax [2]: 0.292
- combination Emax [3]: 0.229
- combination Emax [4]: 0.126
- combination Emax [5]: 0.137
- combination Emax [6]: 0.32
- combination Emax [7]: 0.152
- combination Emax [8]: 0.204
- combination Emax [9]: 0.357
- combination Emax [10]: 0.0827
- combination Emax [11]: 0.459
- combination Emax [12]: 0.226
- combination Emax [13]: 0.282
- combination Emax [14]: 0.229
- combination Emax [15]: 0.39
- combination Emax [16]: 0.151
- combination Emax [17]: 0.18
- combination Emax [18]: 0.445
- combination Emax [19]: 0.561
- combination Emax [20]: 0.318

SMILES: CC1(C)CCC(CN2CCN(c3ccc(C(=O)NS(=O)(=O)c4ccc(NCC5CCOCC5)c([N+](=O)[O-])c4)c(Oc4cnc5[nH]ccc5c4)c3)CC2)=C(c2ccc(Cl)cc2)C1 [Venetoclax] + Cn1cnc2c(F)c(Nc3ccc(Br)cc3Cl)c(C(=O)NOCCO)cc21 [Selumetinib] (first compound max 1 µM, 7x7, partner max 3 µM)
- combination Emax [1]: 0.164
- combination Emax [2]: 0.192
- combination Emax [3]: 0.727
- combination Emax [4]: 0.131
- combination Emax [5]: 0.294
- combination Emax [6]: 0.0758
- combination Emax [7]: 0.0995
- combination Emax [8]: 0.731
- combination Emax [9]: 0.443
- combination Emax [10]: 0.16
- combination Emax [11]: 0.286
- combination Emax [12]: 0.222
- combination Emax [13]: 0.115
- combination Emax [14]: 0.306
- combination Emax [15]: 0.295
- combination Emax [16]: 0.144
- combination Emax [17]: 0.16
- combination Emax [18]: 0.396
- combination Emax [19]: 0.0633
- combination Emax [20]: 0.498
